Results reported in paper PMC10106456 (Communications Biology, 2023).
Where “and” joins values, the source holds several entries; their conditions need not be identical. Equal values may be shown once. Read-outs that look alike come from different tables or passages of the source.

Experiments:
[1] = biological target: T1, Tet(X6) (Proteus genomosp. 6, UniProt A0A6I7DAX3); test: Substrate degradation by LC-MS (extracted ion counts); type: biochemical, Proteus genomospecies; details: Tet(X6) reaction of aTC
T1 sequence (A0A6I7DAX3 entry or part of it): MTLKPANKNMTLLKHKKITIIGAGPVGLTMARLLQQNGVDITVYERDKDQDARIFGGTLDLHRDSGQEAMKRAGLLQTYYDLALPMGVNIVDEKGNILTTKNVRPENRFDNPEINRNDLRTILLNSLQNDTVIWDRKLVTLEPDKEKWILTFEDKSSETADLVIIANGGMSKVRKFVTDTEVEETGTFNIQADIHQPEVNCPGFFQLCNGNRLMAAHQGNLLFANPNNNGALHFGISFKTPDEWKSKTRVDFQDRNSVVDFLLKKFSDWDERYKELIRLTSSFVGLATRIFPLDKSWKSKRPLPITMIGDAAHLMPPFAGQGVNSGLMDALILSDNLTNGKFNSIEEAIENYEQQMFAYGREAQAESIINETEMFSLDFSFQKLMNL
Experimental: (§1) All in vitro kinetic assays were prepared open to air in non-degassed buffer solutions at room temperature. […] In vitro reactions were monitored by optical absorbance spectroscopy on an Agilent Cary 50 UV-visible spectrophotometer using polystyrene cuvettes. Reaction progress was monitored by optical absorbance spectroscopy (280−550 nm, 1 nm and 5 min intervals) over 2 h. […] The quenched samples were centrifuged (5000 rpm, 4 °C) for 5 min, and 600 μL of the resulting supernatant was mixed with an Fmoc-Ala internal standard (3.12 μM final concentration) and analyzed by LC-MS in positive ion mode (single trial). LC-MS was acquired using an Agilent 6130 single quadrupole instrument (ESI + ) with G1313 autosampler, G1315 diode array detector, and 1200 series solvent module with separation on a Phenomenex Gemini C18 column, 50 × 2 mm (5 um) fit with a guard column cassette. LCMS solvents were 0.1% formic acid in H2O (A) and 0.1% formic acid in acetonitrile (B). […] LCMS data were processed using ChemStation software version B.04.02 SP1. Extracted ion chromatograms (EICs) for the expected [M + H]^+ molecular ions corresponding to substrate and mono-hydroxylated product were normalized to the [M + H]^+ counts for an Fmoc-Ala internal standard.

[2] = test system: E. coli DH5αZ1 + pZE24-tet(X6); test: Microbroth dilution antibiotic susceptibility test (MIC); type: cell-based; details: Escherichia coli
Experimental: (§2) For high expression, 1 mM IPTG fully relieves repression by LacI[44] thus only IPTG was used in whole-cell tests. Chemically-competent E. coli DH5αZ1 (Expressys) was transformed with these pZE24 constructs by heat shock. Minimum inhibitory concentrations (MICs) were measured as per Clinical and Laboratory Standards Institute (CLSI) guidelines. Substrates and inhibitors were dissolved in DMSO (20 mg/mL) then diluted to working concentrations in cation-adjusted Mueller-Hinton II broth supplemented with 50 μg/mL kanamycin (Supplementary Data 2). Antibiotic susceptibility testing panels were prepared in 96-well flat-bottom microplates (Corning) by two-fold serial dilution of the antibiotic of interest (Supplementary Data 3). […] Liquid cultures of each strain were grown to exponential phase then diluted to a standard concentration (OD600 = 0.0015, which is equivalent to double ~5 × 10^5 CFU/mL) and inoculated into each panel at a 1:1 ratio. […] Each strain-antibiotic/inhibitor combination was tested in triplicate, along with no-drug and no-cell controls. Inoculated panels were sealed with Breathe-Easy membranes (Sigma-Aldrich) and incubated at 37 °C for 20 h. MICs were scored by absorbance measurements at 600 nm (OD600) using the Synergy H1 microplate reader (Biotek Instruments, Inc).

[3] = test system: E. coli DH5αZ1 + pZE24-tet(X7); test: as above; type: cell-based; details: Escherichia coli, 20 h
Experimental: as §2

[4] = test system: E. coli DH5αZ1 + pZE24 (empty); test: as above; type: cell-based; details: Escherichia coli, 20 h, drug alone
Experimental: as §2

[5] = biological target: T1, Tet(X6); details: for Slope (initial velocity of substrate degradation): trials 1-3, absorbance 400 nm (440 nm for aTC)
Experimental: All experiments were prepared open to air in non-degassed buffer solutions at room temperature. […] Initial enzyme velocities were determined by linear regression using Agilent Cary WinUV Software over the linear range of the reaction (typically between 0 to 1 min), plotted against the concentration of the substrate, and fitted to the Michaelis–Menten or allosteric sigmoidal nonlinear regression equations using GraphPad Prism 6.

[6] = test system: E. coli DH5αZ1 pZE24-empty; test: Checkerboard whole cell inhibition assay (tetracycline + anhydrotetracycline); type: cell-based
Experimental: as §2

[7] = test system: E. coli expressing Tet(X7); test: as above; type: cell-based; details: pZE24-tetX7, panel concentrations in μg/mL per Supp. Data 3
Experimental: as §2

[8] = test system: E. coli expressing Tet(X6); type: cell-based; details: pZE24-tetX6, panel concentrations in μg/mL per Supp. Data 3
Experimental: as §2

[9] = biological target: T1, Tet(X6); test: Apparent Tet(X6) inhibitor IC50 (optical absorbance assay); type: biochemical, Proteus genomospecies; details: for IC50: Tet(X6); for Slope (velocity of substrate degradation in presence of aTC): trials 1-3
Experimental: All experiments were prepared open to air in non-degassed buffer solutions at room temperature. […] Initial enzyme velocities were determined by linear regression using Agilent Cary WinUV Software over the linear range of the reaction (typically between 0 to 1 min). The velocities were plotted against the logarithm of inhibitor concentration, and apparent IC50 values were determined using nonlinear regression analysis in GraphPad Prism v6. Each set of experiments included a no-TDase control reaction which was used as the full enzyme inhibition velocity and assigned to an inhibitor concentration of 1 × 10^15, as well as a no-inhibitor control which was assigned an inhibitor concentration of 1 × 10^–15.

[10] = biological target: T1, Tet(X6); test: Substrate degradation by scanning optical absorbance spectroscopy; type: biochemical, Proteus genomospecies; details: in the presence of Tet(X6), NADPH, and O2; 20 μM substrate, 2 h
Experimental: as §1

## Cc1c2c(c(O)c3c(O)cccc13)C(=O)[C@]1(O)C(=O)C(C(N)=O)=C(O)[C@@H](N(C)C)[C@@H]1C2 [aTC, anhydrotetracycline]
[1]; time 0 min
  Percent Ion Count (relative %): 100%
[1]; time 5 min
  Percent Ion Count (relative %): 95.7447%
[1]; time 30 min
  Percent Ion Count (relative %): 80%
[1]; time 60 min
  Percent Ion Count (relative %): 64.9123%
[1]; time 90 min
  Percent Ion Count (relative %): 74.5098%
[1]; time 120 min
  Percent Ion Count (relative %): 75.7895%
[2]
  MIC: 32 µg/mL
[3]
  MIC: 8 µg/mL
[4]
  MIC: 4 µg/mL
[5]; Tet(X6)
  factor by which apparent kcat is lower than for tetracycline antibiotic substrates: ≤ 7
[5]; [Sub] 1.94805 μM
  Slope (initial velocity of substrate degradation): 0.0038 and 0.0045 and 0.003
[5]; [Sub] 3.8961 μM
  Slope (initial velocity of substrate degradation): 0.0098 and 0.0073 and 0.0072
[5]; [Sub] 6.16883 μM
  Slope (initial velocity of substrate degradation): 0.0097 and 0.0093 and 0.009
[5]; [Sub] 8.11688 μM
  Slope (initial velocity of substrate degradation): 0.0054 and 0.0074 and 0.0086
[5]; [Sub] 20.1299 μM
  Slope (initial velocity of substrate degradation): 0.0109 and 0.0073 and 0.0099
[5]; [Sub] 29.8701 μM
  Slope (initial velocity of substrate degradation): 0.0108 and 0.0104 and 0.0106
[5]; supplementary source data, Tet(X6) 0.4 µM
  Michaelis-menten nonlinear fit, best-fit Vmax: 0.01106
[6]; TET 0, panel concentrations in μg/mL per Supp. Data 3
  ATC concentration inhibiting growth at fixed TET (Fig3a source data): 4
[6]; TET 1, panel concentrations in μg/mL per Supp. Data 3
  ATC concentration inhibiting growth at fixed TET (Fig3a source data): 0
[7]; TET 0
  ATC concentration inhibiting growth at fixed TET (Fig3a source data): 8
[7]; TET 1
  ATC concentration inhibiting growth at fixed TET (Fig3a source data): 8
[7]; TET 2
  ATC concentration inhibiting growth at fixed TET (Fig3a source data): 4
[7]; TET 4
  ATC concentration inhibiting growth at fixed TET (Fig3a source data): 4
[7]; TET 8
  ATC concentration inhibiting growth at fixed TET (Fig3a source data): 2
[7]; TET 16
  ATC concentration inhibiting growth at fixed TET (Fig3a source data): 0.5
[7]; TET 32
  ATC concentration inhibiting growth at fixed TET (Fig3a source data): 0
[8]; TET 0
  ATC concentration inhibiting growth at fixed TET (Fig3a source data): 32
[8]; TET 1
  ATC concentration inhibiting growth at fixed TET (Fig3a source data): 32
[8]; TET 2
  ATC concentration inhibiting growth at fixed TET (Fig3a source data): 32
[8]; TET 4
  ATC concentration inhibiting growth at fixed TET (Fig3a source data): 32
[8]; TET 8
  ATC concentration inhibiting growth at fixed TET (Fig3a source data): 32
[8]; TET 16
  ATC concentration inhibiting growth at fixed TET (Fig3a source data): 16
[8]; TET 32
  ATC concentration inhibiting growth at fixed TET (Fig3a source data): 16
[8]; TET 64
  ATC concentration inhibiting growth at fixed TET (Fig3a source data): 16
[8]; TET 128
  ATC concentration inhibiting growth at fixed TET (Fig3a source data): 8
[8]; TET 256
  ATC concentration inhibiting growth at fixed TET (Fig3a source data): 0
[9]; IC50, aTC inhibition of ERA degradation, substrate ERA
  IC50: 9 ± 1 µM
[9]; IC50, aTC inhibition of OMA degradation, substrate OMA
  IC50: 12 ± 4 µM
[9]; IC50, aTC inhibition of TIG degradation, substrate TIG
  IC50: 2.2 ± 0.2 µM
[9]; substrate Erav, log[aTC] μM 0.81
  Slope (velocity of substrate degradation in presence of aTC): 0.0443 and 0.0431 and 0.045
[9]; substrate Erav, log[aTC] μM 1.41
  Slope (velocity of substrate degradation in presence of aTC): 0.0266 and 0.0254 and 0.0225
[9]; substrate Erav, log[aTC] μM 1.72
  Slope (velocity of substrate degradation in presence of aTC): 0.0176 and 0.0178 and 0.0199
[9]; substrate Erav, log[aTC] μM 2.07
  Slope (velocity of substrate degradation in presence of aTC): 0.0149 and 0.0154 and 0.0125
[9]; substrate Erav, log[aTC] μM 2.16
  Slope (velocity of substrate degradation in presence of aTC): 0.007 and 0.0075 and 0.0083
[9]; substrate Omad, log[aTC] μM 0.81
  Slope (velocity of substrate degradation in presence of aTC): 0.0132 and 0.0149 and 0.0223
[9]; substrate Omad, log[aTC] μM 1.41
  Slope (velocity of substrate degradation in presence of aTC): 0.0111 and 0.0097 and 0.0109
[9]; substrate Omad, log[aTC] μM 1.72
  Slope (velocity of substrate degradation in presence of aTC): 0.0072 and 0.0051 and 0.0089
[9]; substrate Omad, log[aTC] μM 2.16
  Slope (velocity of substrate degradation in presence of aTC): 0.0042 and 0.007 and 0.0037
[9]; substrate Tig, log[aTC] μM 0.81
  Slope (velocity of substrate degradation in presence of aTC): 0.0454 and 0.0455 and 0.0453
[9]; substrate Tig, log[aTC] μM 1.41
  Slope (velocity of substrate degradation in presence of aTC): 0.0221 and 0.024 and 0.0233
[9]; substrate Tig, log[aTC] μM 1.72
  Slope (velocity of substrate degradation in presence of aTC): 0.0213 and 0.0168 and 0.0171
[9]; substrate Tig, log[aTC] μM 2.07
  Slope (velocity of substrate degradation in presence of aTC): 0.0168 and 0.0154 and 0.0122
[9]; substrate Tig, log[aTC] μM 2.16
  Slope (velocity of substrate degradation in presence of aTC): 0.0135 and 0.0131 and 0.0184
[10]
  degradation observed by optical absorbance: time-dependent decrease at 440 nm
